From patent US4465843A, “Process for the preparation of derivatives of 2-pyrrole acetic acid with anti-inflammatory activity” (Laboratories Pharmedical SA, priority 1981, dated 1984)
Like-named read-outs stand apart in the source and are kept apart here.

What was measured:
[1] = system: paw edema as induced by carrageenin; test: anti-inflammatory activity, paw edema induced by carrageenin in the female rat (Winter et al); format: in vivo; details: po
[2] = system: contorsions as induced by acetic acid; test: analgesic activity, contorsions induced by acetic acid by intraperitoneal route in the rat (Koster et al); format: in vivo; details: ip
[3] = anti-inflammatory activity, carrageenin paw edema, female rat, p.os, read-out: ED50
[4] = analgesic activity, acetic acid contorsions (i.p.), rat, p.os, read-out: ED50

| Structure (SMILES) | ED50 [1, 3] [mg/kg] | ED50 [2, 4] [mg/kg] | ED50 ([1]; Rattus norvegicus) [mg/kg] | ED50 ([2]; Rattus norvegicus) [mg/kg] |
| --- | --- | --- | --- | --- |
| Cc1cc(CC(=O)O)n(C)c1C(=O)c1ccc(Cl)cc1 [Example 2, acetic acid] | 1.7 | 2.5 | – | – |
| CCn1c(CC(=O)O)cc(C)c1C(=O)c1ccc(Cl)cc1 [Example 3] | 21.2 | 31 | – | – |
| CCn1c(CC(=O)O)cc(C)c1C(=O)c1ccccc1 [Example 4] | 48 | 82 | – | – |
| COc1ccc2c(c1)c(CC(=O)O)c(C)n2C(=O)c1ccc(Cl)cc1 [Indomethacin, reference compound] | – | – | 2.85 | – |
| CC(=O)Oc1ccccc1C(=O)O [acetyl salicylic acid, reference compound] | – | – | – | 110 |
